Legend:
[1] = test system: CHO-K1/Gα15 (−5-HT1A) cells; assay: cAMP-Glo assay in −5-HT1A control cells (CHO-K1/Gα15); assay type: cell-based; details: −5HT1A cell cultures (control without 5-HT1A receptor); FIG. 14D-14F
Source text: CHO-K1/Gα15 (GenScript, M00257) (−5-HT1A) and CHO-K1/5-HT1A/Gα15 (GenScript, M00330) (+5-HT1A) cells lines were used. Briefly, CHO-K1/Gα15 is a control cell line that constitutively expresses Gα15 which is a promiscuous Gq protein. This control cell line lacks any transgene encoding 5-HT1A receptors, but still responds to forskolin; thus, cAMP response to forskolin should be the same regardless of whether or not 5-HT1A agonists are present. Conversely, CHO-K1/5-HT1A/Gα15 cells stably express 5-HT1A receptor in the CHO-K1 host background. […] In +5-HT1A cells, Gα15 may be recruited in place of Gαi/o, which could theoretically dampen cAMP response (Rojas and Fiedler 2016, Front Cell Neurosci 10: 272). […] In contrast, tryptophan is not known to activate 5-HT1A receptors, and was thus used as a negative control. Cells were maintained in complete growth media as recommended by supplier (GenScript) which is constituted as follows: Ham's F12 Nutrient mix (HAM's F12, GIBCO #11765-047) with 10% fetal bovine serum (FBS) (Thermo Scientific #12483020), 200 μg/ml zeocin (Thermo Scientific #R25005) and/or 100 μg/ml hygromycin (Thermo Scientific #10687010). The cells were cultured in a humidified incubator with 37° C. and 5% CO2. Cells maintenance was carried out as recommended by the cell supplier. Briefly, vials with cells were removed from the liquid nitrogen and thawed quickly in 37° C. water bath. Just before the cells were completely thawed the vial's outside was decontaminated by 70% ethanol spray. […]
As 5-HT1A activation inhibits cAMP formation, the agonist activity of test molecules on 5-HT1A was measured via the reduction in the levels of cAMP produced due to application of 4 μM forskolin. The change in intracellular cAMP levels due to the treatment of novel molecules was measured using cAMP-Glo Assay kit (Promega #V1501). […] Reduced ATP caused reduced conversion of luciferin to oxyluciferin, conferring diminished luminescence as the result of 5-HT1A activation. […]

[2] = target: T1, 5-HT1A receptor (Homo sapiens, UniProt P08908); assay: cAMP-Glo assay of 5-HT1A activation in +5-HT1A cells (CHO-K1/5-HT1A/Gα15); assay type: cell-based; details: for 5-HT1A binding activity from % cAMP levels trend: +5HT1A cell cultures; for 5-HT1A activity from luminescence (cAMP) trend: +5HT1A cell culture, FIG. 14B, 14C
T1 construct: host or cells: CHO-K1 stably expressing 5-HT1A and Gα15
T1 sequence (P08908 1-422): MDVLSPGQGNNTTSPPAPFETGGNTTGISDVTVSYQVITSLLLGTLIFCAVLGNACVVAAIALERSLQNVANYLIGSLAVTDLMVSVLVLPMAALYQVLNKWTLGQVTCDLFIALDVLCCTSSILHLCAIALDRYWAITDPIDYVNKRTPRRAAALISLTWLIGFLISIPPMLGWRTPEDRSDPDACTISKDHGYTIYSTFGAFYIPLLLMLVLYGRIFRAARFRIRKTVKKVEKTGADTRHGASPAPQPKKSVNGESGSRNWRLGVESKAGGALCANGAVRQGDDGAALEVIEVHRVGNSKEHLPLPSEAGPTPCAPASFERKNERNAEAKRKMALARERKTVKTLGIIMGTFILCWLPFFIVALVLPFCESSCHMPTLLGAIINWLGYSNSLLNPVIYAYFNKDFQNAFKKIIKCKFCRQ
Source text: CHO-K1/Gα15 (GenScript, M00257) (−5-HT1A) and CHO-K1/5-HT1A/Gα15 (GenScript, M00330) (+5-HT1A) cells lines were used. Briefly, CHO-K1/Gα15 is a control cell line that constitutively expresses Gα15 which is a promiscuous Gq protein. This control cell line lacks any transgene encoding 5-HT1A receptors, but still responds to forskolin; thus, cAMP response to forskolin should be the same regardless of whether or not 5-HT1A agonists are present. Conversely, CHO-K1/5-HT1A/Gα15 cells stably express 5-HT1A receptor in the CHO-K1 host background. […] In +5-HT1A cells, Gα15 may be recruited in place of Gαi/o, which could theoretically dampen cAMP response (Rojas and Fiedler 2016, Front Cell Neurosci 10: 272). […] In contrast, tryptophan is not known to activate 5-HT1A receptors, and was thus used as a negative control. Cells were maintained in complete growth media as recommended by supplier (GenScript) which is constituted as follows: Ham's F12 Nutrient mix (HAM's F12, GIBCO #11765-047) with 10% fetal bovine serum (FBS) (Thermo Scientific #12483020), 200 μg/ml zeocin (Thermo Scientific #R25005) and/or 100 μg/ml hygromycin (Thermo Scientific #10687010). The cells were cultured in a humidified incubator with 37° C. and 5% CO2. Cells maintenance was carried out as recommended by the cell supplier. Briefly, vials with cells were removed from the liquid nitrogen and thawed quickly in 37° C. water bath. Just before the cells were completely thawed the vial's outside was decontaminated by 70% ethanol spray. The cell suspension was then retrieved from the vial and added to warm (37° C.) complete growth media, and centrifuged at 1,000 rpm for 5 minutes. The supernatant was discarded, and the cell pellet was then resuspended in another 10 ml of complete growth media, and added to the 10 cm cell culture dish (Greiner Bio-One #664160). The media was changed every third day until the cells were about 90% confluent. The ˜90% confluent cells were then split 10:1 for maintenance or used for experiment.
The change in intracellular cAMP levels due to the treatment of novel molecules was measured using cAMP-Glo Assay kit (Promega #V1501). Briefly, +5-HT1A cells were seeded on 1-6 columns and base −5-HT1A cells were seeded on columns 7-12 of the white walled clear bottom 96-well plate (Corning, #3903). Both cells were seeded at the density of 30,000 cells/well in 100 μl complete growth media and cultured 24 hrs in humidified incubator at 37° C. and 5% CO2. On the experiment day, the media of cells was replaced with serum/antibiotic free culture media. Then the cells were treated for 20 minutes with test molecules dissolved in induction medium ([…], 500 μM IBMX (isobutyl-1-methylxanthine, Sigma-Aldrich, Cat. #17018) and 100 μM (RO 20-1724, Sigma-Aldrich, Cat. #B8279)). Forskolin induced cAMP formation whereas IBMX and RO 20-1724 inhibited the degradation of cAMP. PKA was added to the lysate, mixed, and subsequently the substrate of the PKA was added. PKA was activated by cAMP, and the amount of ATP consumed due to PKA phosphorylation directly corresponded to cAMP levels in the lysate. Reduced ATP caused reduced conversion of luciferin to oxyluciferin, conferring diminished luminescence as the result of 5-HT1A activation. […] Note that compound (VI) is shown simply as (VI) along the x-axis. For FIGS A-C, error bars represent results of three experiments (n=3).

[3] = target: T2, 5-HT2A receptor (Homo sapiens, UniProt P28223); assay: [3H]ketanserin competition binding assay (SPA) on membranes containing 5-HT2A; details: fixed (1 nM) [3H]ketanserin; FIG. 13B, 13C
T2 construct: purchased PerkinElmer ES-313-M400UA
T2 sequence (P28223 whole entry): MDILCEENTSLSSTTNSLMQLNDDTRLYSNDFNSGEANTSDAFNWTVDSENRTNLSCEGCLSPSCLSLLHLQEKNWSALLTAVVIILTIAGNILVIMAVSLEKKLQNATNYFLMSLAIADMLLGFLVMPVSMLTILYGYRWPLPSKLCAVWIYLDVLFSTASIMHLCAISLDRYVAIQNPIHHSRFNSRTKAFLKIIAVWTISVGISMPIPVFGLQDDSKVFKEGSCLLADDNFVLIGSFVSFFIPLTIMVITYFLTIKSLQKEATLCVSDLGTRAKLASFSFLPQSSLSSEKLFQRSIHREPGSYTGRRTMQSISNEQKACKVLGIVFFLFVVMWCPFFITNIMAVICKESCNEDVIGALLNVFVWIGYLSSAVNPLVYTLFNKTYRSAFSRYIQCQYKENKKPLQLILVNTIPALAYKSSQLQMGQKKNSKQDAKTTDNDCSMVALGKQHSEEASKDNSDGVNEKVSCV
Source text: Evaluation of drug binding is an essential step to characterization of all drug-target interactions (Fang 2012, Exp Opin Drug Discov 7:969). The binding affinity of a drug to a target is traditionally viewed as an acceptable surrogate of its in vivo efficacy (Núñez et al., 2012, Drug Disc Today 17: 10). Competition assays, also called displacement or modulation binding assays, are a common approach to measure activity of a ligand at a target receptor (Flanagan 2016, Methods Cell Biol 132: 191). In these assays, standard radioligands acting either as agonists or antagonists are ascribed to specific receptors. […] After incubation, the samples were read on a MicroBeta 2 Microplate Counter (Perkin Elmer). […] Equilibrium binding constants for ketanserin (Kd) were determined from saturation binding curves using the ‘one-site saturation binding analysis’ method of GraphPad PRISM software (Version 9.2.0). […] Ki values were calculated from the competition displacement data using the competitive binding analysis from GraphPad PRISM software. […] Specific binding in counts per minute (cpm) was calculated by subtracting non-specific binding from total binding. Specific binding (pmol/mg) was calculated from μmol of [^3H]ketanserin bound per mg of protein in the assay. The Kd was calculated by fitting the data with the one-site binding model of PRISM software (version 9.2.0).

[4] = fixed (4 μM) forskolin, decreasing dosages of ligand, FIG. 14D, 14E
[5] = fixed (4 μM) forskolin, decreasing dosages of ligand

Row | SMILES | trend of increasing % cAMP levels with decreasing compound [1] | 5-HT1A binding activity from % cAMP levels trend [2, 4] | 5-HT1A activity from luminescence (cAMP) trend [2, 5] | competition binding curve versus [3H]ketanserin [3] | further results
1 | COc1ccc(C(=O)O)c2[nH]cc(CCN)c12 [compound (VI)] | not observed | mild 5-HT1A binding activity |  |  | 
2 | CN(C)CCc1c[nH]c2ccccc12 [DMT] |  |  | 5-HT1A activity |  | 
3 | NCCc1c[nH]c2c(C(=O)O)ccc(O)c12 [compound (VII)] | not observed |  |  |  | 5-HT1A binding activity from % cAMP levels trend ([2]; decreasing dosages of compound, FIG. 14F): 5-HT1A binding activity
4 | N[C@@H](Cc1c[nH]c2ccccc12)C(=O)O [tryptophan] |  |  | lack of 5-HT1A activity | no binding | 
5 | NCCc1c[nH]c2ccc(O)cc12 [serotonin] | not observed | 5-HT1A binding activity |  |  | 
6 | CN(C)CCc1c[nH]c2cccc(O)c12 [psilocin] |  |  |  | binding | 

— patent US12605361B2, “Carboxylated psilocybin derivatives and methods of using” (Enveric Biosciences Canada Inc., priority 2020, dated 2026)
